Measurements taken from PMC8952214 (Pharmaceuticals, 2022).
Like-named read-outs stand apart in the source and are kept apart here.

Columns and labels:
[1] = system: A/Parma/05/06 H3N2 (Wisconsin-like); format: biochemical, Influenza A virus
Cytotoxicity assay = format: cell-based, canine; settings: dog, MDCK cells (confluent); read-out: CC50 cytotoxic concentration 50%
Experimental: Madin-Darby canine kidney (MDCK, ATCC, CRL-2936) cells were grown at 37 °C in minimal essential medium (MEM, Invitrogen, Paisley, UK) containing 1.2 g/L NaHCO3, and supplemented with 10% inactivated fetal calf serum (FCS, Invitrogen, Paisley, UK), 2 mM glutamine, nonessential amino acids, penicillin (100 IU/mL), and streptomycin (100 μg/mL).
This procedure was performed as reported elsewhere. Briefly, two-fold serial dilutions of each compound and DMSO or H2O in culture medium were incubated at 37 °C with confluent MDCK cells grown in 96-well tissue culture microplates (Nalge Nunc Europe Ltd., Neerijse, Belgium). After 24 and 48 h, the following parameters were evaluated: cell morphology was examined by light microscopy, cell viability was determined by neutral red staining as already described by us, and cell proliferation was evaluated quantitatively by microscopic counts after dispersion into individual cells with trypsin.

[2] = system: A/Parma/05/06 H3N2 (Wisconsin-like); assay: microbe, parasite or virus in culture; format: cell-based, Influenza A virus; settings: for EC50: Influenza A virus, H3N2, MDCK, 48 h, read-out: EC50 A/Parma H3N2
[3] = system: A/RomaISS/02/08 H1N1 (Brisbane-like) oseltamivir-sensitive virus; settings: Table 1; turkey erythrocytes; cited from earlier work
[4] = system: A/RomaISS/02/08 H1N1 (Brisbane-like) oseltamivir-sensitive virus; settings: MDCK cells, c.p.e. by neutral red, 48 h; read-out: EC50 A/Roma H1N1; cited from earlier work
A/H1N1 = settings: cited from earlier work
[5] = system: A/RomaISS/02/08 H1N1 (Brisbane-like) oseltamivir-sensitive virus; assay: microbe, parasite or virus in culture; format: cell-based, Influenza A virus; settings: for EC50: Influenza A virus, H1N1, MDCK, 48 h, read-out: EC50 A/Roma H1N1
[6] = system: A/RomaISS/02/08 H1N1 (Brisbane-like) oseltamivir-sensitive virus; format: biochemical, Influenza A virus

Compound | HI Titer A/Parma H3N2 [1] | CC50 (Cytotoxicity assay) | SI (selectivity index) = CC50/EC50, A/Parma H3N2 [2] | HI Titer A/Roma H1N1 [3] | HI Titer A/Roma H1N1 [6] | other results
Cc1ccc(S(=O)(=O)NC(C)c2ccc(-n3ccnc3)cc2)cc1C (stereo not drawn) [Compound 1] | 0.48 µM | 300000 nM | 3 × 10^3 | 0.24 µM |  | EC50 [2]: 98 nM; EC50 [4]: 500 nM; activity in hemolysis assays toward A/H1N1 (A/H1N1): active
Fc1ccc(CNc2ncnc3[nH]cnc23)cc1 [Compound 2] |  |  |  | 0.48 µM |  | 
COc1ccc(C(=O)Nc2cccc(S(=O)(=O)NCc3ccco3)c2)cc1 [Compound 3] |  |  |  | 0.48 µM |  | 
Cc1ccc(F)cc1NC(=O)COC(=O)c1ccc2ccccc2n1 [Compound 4] | 0.48 µM | 250000 nM | 2 × 10^3 | 0.48 µM |  | EC50 [2]: 125 nM; EC50 [4]: 62 nM; activity in hemolysis assays toward A/H1N1 (A/H1N1): active
Cc1ccc2nc(CNc3ccc(C)c(Cl)c3)cc(=O)n2c1 [Compound 5] |  |  |  | 0.48 µM |  | 
O=C(CC1(O)C(=O)Nc2ccccc21)c1ccccn1 (stereo not drawn) [Compound 6] | 0.00048 µM | 31200 nM | 1.04 × 10^2 |  |  | SI (selectivity index) = CC50/EC50, A/Roma H1N1 [5]: 1.56 × 10^2; EC50 [5]: 200 nM; EC50 [2]: 300 nM
N#Cc1ccc(NC(=O)COC(=O)c2ccccn2)cc1 [Compound 7] | 12,500 pM | 31200 nM | 0.44 × 10^2 |  | 0.047 pM | SI (selectivity index) = CC50/EC50, A/Roma H1N1 [5]: 0.39 × 10^2; EC50 [5]: 800 nM; EC50 [2]: 700 nM
Cc1ccc(NC(=O)COC(=O)c2ccccn2)cc1F [Compound 13] | 6e-06 µM | 31200 nM | 0.62 × 10^2 |  | 24 pM | EC50 [5]: 700 nM
O=C1CCCN1c1ccc(CNS(=O)(=O)c2ccc(F)cc2)cc1 [Compound 23] |  |  |  |  | 12 pM | 
O=C(COC(=O)c1ccccn1)Nc1ccc2c(c1)CCC2 [Compound 24] |  |  |  |  | 0.024 pM | 
COc1ccc(S(=O)(=O)NCc2ccc(-n3ccnc3)cc2)cc1F [Compound 25] | 50,000 pM | 31200 nM | 0.39 × 10^2 |  |  | SI (selectivity index) = CC50/EC50, A/Roma H1N1 [5]: 0.34 × 10^2; EC50 [5]: 900 nM
Cc1nc(-c2cccc(NC(=O)COC(=O)c3ccc4ccccc4n3)c2)cs1 [Compound 26] |  |  |  |  | 0.093 pM | 
CC(NS(=O)(=O)c1ccc2c(c1)CCC(=O)N2)c1ccc(-n2ccnc2)cc1 (stereo not drawn) [Compound 27] | 25,000 pM |  |  |  |  | 
Cc1ccc(S(=O)(=O)Nc2ccc(-n3ccnc3)c(Cl)c2)cc1 [Compound 28] |  |  |  |  | 0.093 pM | 
